Article PMC5486949 (SLAS discovery, 2017)
Where a name gives a salt, the structure may show the parent alone. Read-outs that look alike come from different tables or passages of the source. One block for each compound: values may come before it.

What was measured:
[1] = target: ERRα; assay: ERR luciferase reporter gene assay, agonist mode; assay type: cell-based, human; conditions: for EC50: read-out: ERRα (Agonist) EC50; for AC50: read-out: AC50 ERR ↑
[2] = test system: PGC-1α/ERRα; assay: PGC/ERR luciferase reporter gene assay, agonist mode; assay type: cell-based, human; conditions: Homo sapiens; for AC50: read-out: AC50 PGC-ERR ↑; for EC50: read-out: PGC-1α/ERRα (Agonist) EC50
[3] = test system: ERR and PGC/ERR cell lines; assay: Cell viability; conditions: agonist mode, ERR and PGC/ERR lines (Fig. 3A,B)
[4] = test system: PGC-1α/ERRα; assay: PGC/ERR luciferase reporter gene assay, antagonist mode; assay type: cell-based, human; conditions: for AC50: read-out: AC50 PGC/ERR ↓; for IC50: read-out: PGC-1α/ERRα (Antagonist) IC50
[5] = test system: ERRα; assay: ERR luciferase reporter gene assay, antagonist mode; assay type: cell-based, human; conditions: for AC50: read-out: AC50 ERR↓; for IC50: read-out: ERRα (Antagonist) IC50
[6] = test system: aryl hydrocarbon receptor (AhR); conditions: cited from earlier work
[7] = test system: ERR cell line (HEK293T); assay: Cell viability assay multiplexed with ERR antagonist mode assay; assay type: cell-based, human; conditions: Homo sapiens, HEK-293T, read-out: ERRα (Viability) IC50
[8] = LOPAC qHTS, dash = inconclusive or no activity
[9] = antagonist mode, 0 = inactive or inconclusive

EC50 [1, 8]: 2.66 µM
Compound: O=C1Nc2ccccc2/C1=C1/Nc2ccccc2/C1=N\O [Indirubin-3′-oxime]

EC50 [2]: 1.33 µM
EC50 ([1]; Homo sapiens): 2.98 µM
Compound: O=C1Cc2c([nH]c3ccc(Br)cc23)-c2ccccc2N1 [Kenpaullone]
AC50 [2]: 1.32 µM
cytotoxicity at concentrations of outfitted points of agonist curves [3]: cytotoxicity did not appear to be the direct cause for the outfitted points
AC50 ([1]; Homo sapiens): 2.95 µM

IC50 ([4]; Homo sapiens): 12.6 µM
IC50 ([5]; Homo sapiens): 9.44 µM
Compound: CC[N+](CC)(CC)CCOc1ccc(/C=C/c2ccccc2)cc1 [MG 624]
AC50 ([4]; Homo sapiens): 11.7 µM
AC50 ([5]; Homo sapiens): 10.5 µM

EC50 ([1]; Homo sapiens): 2.98 µM
Compound: CC[C@H](C)C(=O)O[C@H]1CCC=C2C=C[C@H](C)[C@H](CC[C@@H]3C[C@@H](O)CC(=O)O3)[C@H]21 [Mevastatin]

IC50 ([5]; Homo sapiens): 23.7 µM
Compound: CC#C[C@]1(O)CC[C@H]2[C@@H]3CCC4=CC(=O)CCC4=C3[C@@H](c3ccc(N(C)C)cc3)C[C@@]21C [Mifepristone]

EC50 [2]: 11.9 µM
Compound: Nc1ccc(CCNc2ncnc3c2ncn3[C@@H]2O[C@H](CO)[C@@H](O)[C@H]2O)cc1 [N6-2-(4-Aminophenyl)ethyladenosine]

EC50 [2]: 2.98 µM
Compound: OC[C@H]1O[C@@H](n2cnc3c(NC4CCCC4)ncnc32)[C@H](O)[C@@H]1O [N6-Cyclopentyladenosine]

Compound: COC(=O)Nc1nc2ccc(C(=O)c3cccs3)cc2[nH]1 [Nocodazole]
EC50 [2]: 1.88 µM

EC50 [1, 8]: 2.11 µM
Compound: COc1cccc(-c2cc(=O)c3ccccc3o2)c1N [PD 98,059]

Compound: CCCCCCCCCCCCCC(=O)O[C@@H]1[C@@H](C)[C@@]2(O)[C@@H](C=C(CO)C[C@]3(O)C(=O)C(C)=C[C@@H]23)[C@@H]2C(C)(C)[C@]12OC(C)=O [Phorbol 12-myristate 13-acetate]
AC50 [2]: 0.00661 µM
EC50 [2]: 0.01 µM
cytotoxicity at concentrations of outfitted points of agonist curves [3]: cytotoxicity was seen at the concentration accompanying the outfitted points
AC50 ([1]; Homo sapiens): 0.00832 µM
EC50 ([1]; Homo sapiens): 0.01 µM

EC50 [2]: 18.8 µM
EC50 ([1]; Homo sapiens): 8.41 µM
Compound: Oc1cc(O)cc(/C=C/c2ccc(O)c(O)c2)c1 [Piceatannol]
AC50 [2]: 18.6 µM
AC50 ([1]; Homo sapiens): 8.32 µM

Compound: CC(=O)[C@H]1CC[C@H]2[C@@H]3CCC4=CC(=O)CC[C@]4(C)[C@H]3CC[C@]12C [Progesterone]
IC50 ([5]; Homo sapiens): 11.9 µM

Compound: Cc1cccc(-c2[nH]ncc2-c2ccc3ncccc3n2)n1 [RepSox]
AC50 PGC/ERR ↓ [4]: 5.93 log10(M)*–1
IC50 [4]: 1.19 µM
AC50 ERR↓ [5]: 5.88 log10(M)*–1
IC50 [5]: 1.33 µM

EC50 [2]: 11.9 µM
EC50 ([1]; Homo sapiens): 3.35 µM
Compound: Oc1ccc(/C=C/c2cc(O)cc(O)c2)cc1 [Resveratrol]
AC50 [2]: 11.7 µM
AC50 ([1]; Homo sapiens): 3.31 µM

IC50 ([5]; Homo sapiens): 16.8 µM
Compound: Cc1nc2sccn2c(=O)c1CCN1CCC(=C(c2ccc(F)cc2)c2ccc(F)cc2)CC1 [Ritanserin]

EC50 [2]: 13.3 µM
EC50 ([1]; Homo sapiens): 2.37 µM
Compound: O=c1c2ccccc2nc2n1CCc1c-2[nH]c2ccccc12 [Rutaecarpine]
AC50 AhR ↑ [6]: 5.53 log10(M)*–1
AC50 [2]: 13.2 µM
AC50 ([1]; Homo sapiens): 2.34 µM

IC50 ([5]; Homo sapiens): 10.6 µM
Compound: Oc1ccc(-c2nc(-c3ccncc3)c(-c3ccc(F)cc3)[nH]2)cc1 [SB 202190]

EC50 [1, 8]: 8.41 µM
Compound: Cc1ccc(O)c(N=Nc2ccccc2)n1 [SIB 1757]

EC50 [1, 8]: 13.3 µM
Compound: Cc1cccc(/C=C/c2ccccc2)n1 [SIB 1893]

IC50 ([5]; Homo sapiens): 17.8 µM
Compound: COc1ccc(CCCOC(Cn2ccnc2)c2ccc(OC)cc2)cc1 (centres unmarked) [SKF 96365]

Compound: C=CCNc1ncnc2ccc(Br)cc12 [SMER28]
AC50 PGC/ERR ↓ [4, 9]: 4.98 log10(M)*–1
AC50 ERR↓ [5, 9]: 5.03 log10(M)*–1

EC50 [1, 8]: 3.35 µM
Compound: CN(C)c1ccc(C=C2C(=O)Nc3ccccc32)cc1 [SU 4312]

EC50 [2]: 23.7 µM
Compound: CN(C)S(=O)(=O)c1ccc2c(c1)/C(=C/c1cc3c([nH]1)CCCC3)C(=O)N2 [SU 6656]

Compound: CC(=O)S[C@@H]1CC2=CC(=O)CC[C@]2(C)[C@H]2CC[C@@]3(C)[C@@H](CC[C@@]34CCC(=O)O4)[C@H]12 [Spironolactone]
AC50 ([4]; Homo sapiens): 9.33 µM
IC50 ([4]; Homo sapiens): 9.44 µM
AC50 ([5]; Homo sapiens): 16.6 µM
IC50 ([5]; Homo sapiens): 18.8 µM

Compound: CCN1/C(=C/C(C)=O)Sc2ccc(OC)cc21 [TG003]
AC50 PGC/ERR ↓ [4, 9]: 5.23 log10(M)*–1
AC50 ERR↓ [5, 9]: 4.93 log10(M)*–1

Compound: C/C=C(/C)C(=O)O[C@H]1C(C)=C2[C@H]([C@@H]1OC(=O)CCCCCCC)[C@@](C)(OC(C)=O)C[C@H](OC(=O)CCC)[C@@]1(O)[C@H]2OC(=O)[C@@]1(C)O [Thapsigargin]
IC50 [7]: 10.6 µM
IC50 ([5]; Homo sapiens): 0.24 µM

EC50 ([1]; Homo sapiens): 1.68 µM
Compound: COc1ccc(/C=C/C(=O)Nc2ccccc2C(=O)O)cc1OC [Tranilast]

IC50 ([5]; Homo sapiens): 16.8 µM
Compound: COc1cc2c(cc1OC)-c1c/c(=N\c3c(C)cc(C)cc3C)n(C)c(=O)n1CC2 [Trequinsin hydrochloride]

IC50 ([5]; Homo sapiens): 2.37 µM
Compound: CC(C)(C)c1cc(/C=C(\C#N)C(N)=S)cc(C(C)(C)C)c1O [Tyrphostin AG 879]
